The values below come from US9580449B2, “Compositions and methods for the production of pyrimidine and pyridine compounds with BTK inhibitory activity” (Merck Patent GmbH, priority 2011, dated 2017).

Where only a bound is given, the exact number is not on record here.

full-length human BTK, sequence (Q06187 whole entry): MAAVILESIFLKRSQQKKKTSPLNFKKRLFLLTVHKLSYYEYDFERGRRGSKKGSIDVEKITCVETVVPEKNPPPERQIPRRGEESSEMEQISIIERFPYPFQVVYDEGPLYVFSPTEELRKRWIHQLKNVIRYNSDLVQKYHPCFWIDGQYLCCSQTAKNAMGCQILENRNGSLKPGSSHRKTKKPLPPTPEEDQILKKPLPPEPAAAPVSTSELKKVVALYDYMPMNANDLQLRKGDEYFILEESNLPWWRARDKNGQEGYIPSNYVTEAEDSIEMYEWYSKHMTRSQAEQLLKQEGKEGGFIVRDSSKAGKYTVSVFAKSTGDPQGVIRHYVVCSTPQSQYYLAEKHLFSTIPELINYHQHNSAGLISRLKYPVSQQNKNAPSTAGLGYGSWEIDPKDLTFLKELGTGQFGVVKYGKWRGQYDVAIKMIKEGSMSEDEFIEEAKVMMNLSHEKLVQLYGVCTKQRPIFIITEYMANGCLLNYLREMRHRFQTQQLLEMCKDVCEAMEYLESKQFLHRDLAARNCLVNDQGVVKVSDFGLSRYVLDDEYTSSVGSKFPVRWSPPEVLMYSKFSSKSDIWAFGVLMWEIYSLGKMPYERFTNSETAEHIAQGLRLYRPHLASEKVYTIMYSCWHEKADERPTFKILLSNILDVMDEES

The assay has as its target full-length human BTK (Homo sapiens (Human), UniProt Q06187). Description: BTK IC50 enzyme assay (microfluidic off-chip mobility shift kinase assay). Format: biochemical. Particulars: incubated for 90 min. at 27 C; read-out: Time Dependent BTK Enzyme Assay IC50. Summed up:
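Off-chip microfluidic mobility shift assay on full-length human BTK; substrate-to-product conversion measured by charge/mass separation of phosphorylated peptide after reaction stop.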
Regarding `C=CC(=O)Nc1cccc(Oc2ncnc(N)c2-c2cccc(OC(F)(F)F)c2)c1` [A164, N-(3-((6-amino-5-(3-(trifluoromethoxy)phenyl)pyrimidin-4-yl)oxy)phenyl)acrylamide], the IC50 was above 1 µM. Regarding `C=CC(=O)Nc1cccc(Oc2ncnc(N)c2-c2ccc(Oc3ccccc3F)nc2)c1` [A165, N-(3-((6-amino-5-(6-(2-fluorophenoxy)pyridin-3-yl)pyrimidin-4-yl)oxy)phenyl)acrylamide], the IC50 was below 0.1 µM. As for `C=CC(=O)Nc1cccc(Oc2ncnc(N)c2-c2ccc(Oc3ccc(F)cc3)nc2)c1` [A166, N-(3-((6-amino-5-(6-(4-fluorophenoxy)pyridin-3-yl)pyrimidin-4-yl)oxy)phenyl)acrylamide], the IC50 was below 1 µM. Turning to `C=CC(=O)Nc1cccc(Nc2ncncc2-c2ccc(Oc3ccccc3)cc2)n1` [A167, N-(6-((5-(4-phenoxyphenyl)pyrimidin-4-yl)amino)pyridin-2-yl)acrylamide], the IC50 is below 0.1 µM.

In the case of `C=CC(=O)N1CCC(O)(CNc2ncnc(N)c2-c2ccc(Oc3cccc(C(F)(F)F)c3)cc2)CC1` [A169, 1-(4-(((6-amino-5-(4-(3-(trifluoromethyl)phenoxy)phenyl)pyrimidin-4-yl)amino)methyl)-4-hydroxypiperidin-1-yl)prop-2-en-1-one], the IC50 was below 0.1 µM. For the molecule `C=CC(=O)N1CC[C@@H](CNc2ncnc(N)c2-c2ccc(Oc3cccc(C(F)(F)F)c3)cc2)[C@H](O)C1` [A170, 1-((3S,4S)-4-(((6-amino-5-(4-(3-(trifluoromethyl)phenoxy)phenyl)pyrimidin-4-yl)amino)methyl)-3-hydroxypiperidin-1-yl)prop-2-en-1-one], the IC50 is below 0.1 µM.

Turning to `C=CC(=O)NC12CCC(Nc3ncnc(N)c3-c3ccc(Oc4ccccc4)cc3)(C1)C2` [A177, N-(4-((6-amino-5-(4-phenoxyphenyl)pyrimidin-4-yl)amino)bicyclo[2.1.1]hexan-1-yl)acrylamide], the IC50 is below 0.1 µM. On to `Nc1ncnc(N[C@@H]2CCN(S(=O)(=O)c3c(F)c(F)c(F)c(F)c3F)C2)c1-c1ccc(Oc2ccccc2)cc1` [A178, (R)-N4-(1-((perfluorophenyl)sulfonyl)pyrrolidin-3-yl)-5-(4-phenoxyphenyl)pyrimidine-4,6-diamine], for which the IC50 is below 0.1 µM.

In the case of `Nc1ncnc(N[C@@H]2CCCN(S(=O)(=O)c3c(F)c(F)c(F)c(F)c3F)C2)c1-c1ccc(Oc2ccccc2)cc1` [A179, (R)-N4-(1-((perfluorophenyl)sulfonyl)piperidin-3-yl)-5-(4-phenoxyphenyl)pyrimidine-4,6-diamine], the IC50 is below 1 µM. The value for `C=CC(=O)N1CCC[C@@H](Nc2ncnc(N)c2-c2cnn(Cc3ccccc3)c2)C1` [A180, (R)-1-(3-((6-amino-5-(1-benzyl-1H-pyrazol-4-yl)pyrimidin-4-yl)amino)piperidin-1-yl)prop-2-en-1-one] was below 1 µM; that for `C=CC(=O)NC1CC(CNc2ncnc(N)c2-c2ccc(Oc3ccccc3)cc2)C1` (stereo not drawn) [A182, N-(3-(((6-amino-5-(4-phenoxyphenyl)pyrimidin-4-yl)amino)methyl)cyclobutyl)acrylamide] was below 0.1 µM.

Turning to `C=CC(=O)Nc1cccc(Oc2ncnc(N)c2-c2cnn(Cc3cc(F)cc(F)c3)c2)c1` [A183, N-(3-((6-amino-5-(1-(3,5-difluorobenzyl)-1H-pyrazol-4-yl)pyrimidin-4-yl)oxy)phenyl)acrylamide], the IC50 is below 0.1 µM. On to `C=CC(=O)Nc1cccc(Oc2ncnc(N)c2-c2cnn(Cc3ccccc3F)c2)c1` [A184, N-(3-((6-amino-5-(1-(2-fluorobenzyl)-1H-pyrazol-4-yl)pyrimidin-4-yl)oxy)phenyl)acrylamide], for which the half-maximal inhibitory concentration (IC50) is below 0.1 µM.

As for `C=CC(=O)N1CC(Nc2ncnc(N)c2-c2ccc(Oc3ccccc3)cc2)C1` [A185, 1-(3-((6-amino-5-(4-phenoxyphenyl)pyrimidin-4-yl)amino)azetidin-1-yl)prop-2-en-1-one], the IC50 is below 0.1 µM. With `C=CC(=O)Nc1cncc(Nc2ncnc(N)c2-c2ccc(Oc3ccccc3)cc2)c1` [A186, N-(5-((6-amino-5-(4-phenoxyphenyl)pyrimidin-4-yl)amino)pyridin-3-yl)acrylamide], the IC50 was below 0.1 µM.

As to `C=CC(=O)Nc1cccc(Oc2ncnc(N)c2-c2cnn(Cc3ccc(F)cc3)c2)c1` [A187, N-(3-((6-amino-5-(1-(4-fluorobenzyl)-1H-pyrazol-4-yl)pyrimidin-4-yl)oxy)phenyl)acrylamide], the IC50 is below 0.1 µM. With `C=CC(=O)Nc1cncc(Oc2ncnc(N)c2-c2cnn(Cc3ccccc3)c2)c1` [A189, N-(5-((6-amino-5-(1-benzyl-1H-pyrazol-4-yl)pyrimidin-4-yl)oxy)pyridin-3-yl)acrylamide], the half-inhibitory concentration (IC50) was below 0.1 µM. Turning to `C=CC(=O)Nc1cccc(Oc2ncnc(N)c2-c2cnn(Cc3cccc(C)c3)c2)c1` [A190, N-(3-((6-amino-5-(1-(3-methylbenzyl)-1H-pyrazol-4-yl)pyrimidin-4-yl)oxy)phenyl)acrylamide], the IC50 is below 0.1 µM. As for `C=CC(=O)Nc1cccc(Oc2ncnc(N)c2-c2cnn(Cc3cccc(Cl)c3)c2)c1` [A191, N-(3-((6-amino-5-(1-(3-chlorobenzyl)-1H-pyrazol-4-yl)pyrimidin-4-yl)oxy)phenyl)acrylamide], the IC50 is below 0.1 µM. As for `C=CC(=O)N1CCO[C@@H](COc2ncnc(N)c2-c2cnn(Cc3ccccc3)c2)C1` [A192, (R)-1-(2-(((6-amino-5-(1-benzyl-1H-pyrazol-4-yl)pyrimidin-4-yl)oxy)methyl)morpholino)prop-2-en-1-one], the figure is below 1 µM; as for `C=CC(=O)N1CCO[C@H](COc2ncnc(N)c2-c2cnn(Cc3ccccc3)c2)C1` [A193, (S)-1-(2-(((6-amino-5-(1-benzyl-1H-pyrazol-4-yl)pyrimidin-4-yl)oxy)methyl)morpholino)prop-2-en-1-one], above 1 µM; as for `C=CC(=O)Nc1cccc(Oc2ncnc(N)c2-c2cnn(Cc3ccccc3C#N)c2)c1` [A194, N-(3-((6-amino-5-(1-(2-cyanobenzyl)-1H-pyrazol-4-yl)pyrimidin-4-yl)oxy)phenyl)acrylamide], below 0.1 µM. As for `C=CC(=O)Nc1cccc(Oc2ncnc(N)c2-c2cnn(Cc3cccc(C(F)(F)F)c3)c2)c1` [A195, N-(3-((6-amino-5-(1-(3-(trifluoromethyl)benzyl)-1H-pyrazol-4-yl)pyrimidin-4-yl)oxy)phenyl)acrylamide], the IC50 was below 0.1 µM. As for `C=CC(=O)N1CC[C@@H](COc2ncnc(N)c2-c2cnn(Cc3ccccc3)c2)C1` [A196, (R)-1-(3-(((6-amino-5-(1-benzyl-1H-pyrazol-4-yl)pyrimidin-4-yl)oxy)methyl)pyrrolidin-1-yl)prop-2-en-1-one], the figure is below 1 µM. For `C=CC(=O)Nc1cccc(Oc2ncnc(N)c2-c2cnn(Cc3cccc(OC)c3)c2)c1` [A198, N-(3-((6-amino-5-(1-(3-methoxybenzyl)-1H-pyrazol-4-yl)pyrimidin-4-yl)oxy)phenyl)acrylamide], the concentration for half-maximal inhibition (IC50) is below 0.1 µM. For the molecule `C=CC(=O)N1CCO[C@@H](COc2ncnc(N)c2-c2ccc(Oc3ccc(C#N)cc3)cc2)C1` [A200, (R)-4-(4-(4-((4-acryloylmorpholin-2-yl)methoxy)-6-aminopyrimidin-5-yl)phenoxy)benzonitrile], the IC50 is below 1 µM. On to `C=CC(=O)N1CC[C@@H](COc2ncnc(N)c2-c2ccc(Oc3ccc(C#N)cc3)cc2)C1` [A201, (R)-4-(4-(4-((1-acryloylpyrrolidin-3-yl)methoxy)-6-aminopyrimidin-5-yl)phenoxy)benzonitrile], for which the IC50 was below 1 µM. Consider `C=CC(=O)N1CC2(CC(Oc3ncnc(N)c3-c3ccc(Oc4ccc(C#N)cc4)cc3)C2)C1` [A202, 4-(4-(4-((2-acryloyl-2-azaspiro[3.3]heptan-6-yl)oxy)-6-aminopyrimidin-5-yl)phenoxy)benzonitrile], for which the IC50 is below 0.1 µM. As to `C=CC(=O)Nc1cccc(Oc2ncnc(N)c2-c2cnn(Cc3cccc(C#N)c3)c2)c1` [A203, N-(3-((6-amino-5-(1-(3-cyanobenzyl)-1H-pyrazol-4-yl)pyrimidin-4-yl)oxy)phenyl)acrylamide], the IC50 was below 0.1 µM.

On to `C=CC(=O)N1C[C@@H](F)C[C@H](Nc2ncnc(N)c2-c2ccc(Oc3ccccc3)cc2)C1` [A204, 1-((3S,5S)-3-((6-amino-5-(4-phenoxyphenyl)pyrimidin-4-yl)amino)-5-fluoropiperidin-1-yl)prop-2-en-1-one], for which the IC50 is below 0.1 µM. Consider `C=CC(=O)N1C[C@H](F)C[C@@H](Nc2ncnc(N)c2-c2ccc(Oc3ccccc3)cc2)C1` [A205, 1-((3R,5R)-3-((6-amino-5-(4-phenoxyphenyl)pyrimidin-4-yl)amino)-5-fluoropiperidin-1-yl)prop-2-en-1-one], for which the IC50 is below 0.1 µM. `C=CC(=O)Nc1cccc(Oc2ncnc(N)c2-c2cnn(Cc3cccc(C(=O)OC)c3)c2)c1` [A206, methyl 3-((4-(4-(3-acrylamidophenoxy)-6-aminopyrimidin-5-yl)-1H-pyrazol-1-yl)methyl)benzoate]: the IC50 was below 0.1 µM. As for `C=CC(=O)N1CC2(CC(Nc3ncnc(N)c3-c3ccc(Oc4ccc(C#N)cc4)cc3)C2)C1` [A207, 4-(4-(4-((2-acryloyl-2-azaspiro[3.3]heptan-6-yl)amino)-6-aminopyrimidin-5-yl)phenoxy)benzonitrile], the IC50 is below 1 µM. Consider `C=CC(=O)N1C2CCC1CC(CNc1ncnc(N)c1-c1ccc(Oc3ccc(C#N)cc3)cc1)C2` (stereo not drawn) [A208, 4-(4-(4-(((8-acryloyl-8-azabicyclo[3.2.1]octan-3-yl)methyl)amino)-6-aminopyrimidin-5-yl)phenoxy)benzonitrile], for which the half-maximal inhibitory concentration (IC50) is above 1 µM.

As to `C=CC(=O)N1C2CCC1CC(CNc1ncnc(N)c1-c1cnn(Cc3ccccc3)c1)C2` (stereo not drawn) [A209, 1-(3-(((6-amino-5-(1-benzyl-1H-pyrazol-4-yl)pyrimidin-4-yl)amino)methyl)-8-azabicyclo[3.2.1]octan-8-yl)prop-2-en-1-one], the IC50 is below 1 µM.

As to `C=CC(=O)Nc1cccc(Oc2ncnc(N)c2-c2cnn(Cc3cccc(N(C)C)c3)c2)c1` [A212, N-(3-((6-amino-5-(1-(3-(dimethylamino)benzyl)-1H-pyrazol-4-yl)pyrimidin-4-yl)oxy)phenyl)acrylamide], the IC50 was below 0.1 µM.
